Data taken from paper PMC8700709, “Cannabidiol Inhibits Tau Aggregation In Vitro” (Cells, 2021).

Biological target: T1, tau protein 1N/4R isoform (Homo sapiens, UniProt P10636)
T1 construct: gene MAPT; recombinant human His-tagged tau 1N/4R isoform, expressed in E. coli BL21(DE3)
Assay: intrinsic Tyr fluorescence quenching titration (Stern-Volmer/Hill; Kb at […] °C), Job's plot […]; supported by ThT aggregation assay, CD and AFM
Assay type: binding
Conditions: read-out: Kb×10^4(M^-1) (converted)

T1 sequence (P10636 1-412 isoform P10636-7): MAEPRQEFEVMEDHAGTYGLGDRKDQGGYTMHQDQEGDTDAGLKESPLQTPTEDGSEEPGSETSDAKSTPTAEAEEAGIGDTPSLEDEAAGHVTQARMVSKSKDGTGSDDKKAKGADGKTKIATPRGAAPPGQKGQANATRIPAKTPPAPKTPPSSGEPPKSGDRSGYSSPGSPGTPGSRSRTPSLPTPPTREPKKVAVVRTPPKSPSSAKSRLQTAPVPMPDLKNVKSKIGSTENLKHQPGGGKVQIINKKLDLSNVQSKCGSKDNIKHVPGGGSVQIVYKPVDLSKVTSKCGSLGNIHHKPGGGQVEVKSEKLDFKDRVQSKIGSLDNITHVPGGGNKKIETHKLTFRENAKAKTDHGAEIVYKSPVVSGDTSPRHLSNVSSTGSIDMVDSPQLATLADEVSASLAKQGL

C=C(C)[C@@H]1CCC(C)=C[C@H]1c1c(O)cc(CCCCC)cc1O [Cannabidiol]
Kd: 23.8 µM
